Measurements as given in patent US11299488B2, “Five membered-aminoheterocycle and 5,6-or 6,6-membered bicyclic aminoheterocyclic inhibitors of rock for the treatment of heart failure” (BRISTOL-MYERS SQUIBB COMPANY, priority 2017, dated 2022).

The molecules below were run against ROCK2 (Homo sapiens (Human), UniProt O75116) (assay: ROCK assay (Caliper LABCHIP peptide phosphorylation, 5 μM ATP)).
Format: biochemical
Protocol: The effectiveness of compounds of the present invention as ROCK inhibitors can be determined in a 30 μL assay containing 20 mM HEPES, pH 7.5, 20 mM MgCl2, 0.015% Brij-35, 4 mM DTT, 5 μM ATP and 1.5 μM peptide substrate (FITC-AHA-AKRRRLSSLRA-OH) (SEQ ID No. 1). Compounds were dissolved in DMSO so that the final concentration of DMSO was <2%, and the reaction was initiated with Rho kinase variants. After incubation, the reaction was terminated by the addition of EDTA and the phosphorylated and non-phosphorylated peptides separated using a LABCHIP® 3000 Reader (Caliper Life Sciences). […] Compounds were tested in dose-response format, and the inhibition of kinase activity was calculated at each concentration of compound. The inhibition data were fit using a curve-fitting program to determine the IC50; i.e., the concentration of compound required to inhibit 50% of kinase activity. Representative Examples were tested in the ROCK assay described above and found having ROCK inhibitory activity. A range of ROCK inhibitory activity (IC50 values) of ≤50 μM (50000 nM) was observed. Table A below lists the ROCK IC50 values measured for the following examples.

ROCK2, sequence (O75116 whole entry, species assumed): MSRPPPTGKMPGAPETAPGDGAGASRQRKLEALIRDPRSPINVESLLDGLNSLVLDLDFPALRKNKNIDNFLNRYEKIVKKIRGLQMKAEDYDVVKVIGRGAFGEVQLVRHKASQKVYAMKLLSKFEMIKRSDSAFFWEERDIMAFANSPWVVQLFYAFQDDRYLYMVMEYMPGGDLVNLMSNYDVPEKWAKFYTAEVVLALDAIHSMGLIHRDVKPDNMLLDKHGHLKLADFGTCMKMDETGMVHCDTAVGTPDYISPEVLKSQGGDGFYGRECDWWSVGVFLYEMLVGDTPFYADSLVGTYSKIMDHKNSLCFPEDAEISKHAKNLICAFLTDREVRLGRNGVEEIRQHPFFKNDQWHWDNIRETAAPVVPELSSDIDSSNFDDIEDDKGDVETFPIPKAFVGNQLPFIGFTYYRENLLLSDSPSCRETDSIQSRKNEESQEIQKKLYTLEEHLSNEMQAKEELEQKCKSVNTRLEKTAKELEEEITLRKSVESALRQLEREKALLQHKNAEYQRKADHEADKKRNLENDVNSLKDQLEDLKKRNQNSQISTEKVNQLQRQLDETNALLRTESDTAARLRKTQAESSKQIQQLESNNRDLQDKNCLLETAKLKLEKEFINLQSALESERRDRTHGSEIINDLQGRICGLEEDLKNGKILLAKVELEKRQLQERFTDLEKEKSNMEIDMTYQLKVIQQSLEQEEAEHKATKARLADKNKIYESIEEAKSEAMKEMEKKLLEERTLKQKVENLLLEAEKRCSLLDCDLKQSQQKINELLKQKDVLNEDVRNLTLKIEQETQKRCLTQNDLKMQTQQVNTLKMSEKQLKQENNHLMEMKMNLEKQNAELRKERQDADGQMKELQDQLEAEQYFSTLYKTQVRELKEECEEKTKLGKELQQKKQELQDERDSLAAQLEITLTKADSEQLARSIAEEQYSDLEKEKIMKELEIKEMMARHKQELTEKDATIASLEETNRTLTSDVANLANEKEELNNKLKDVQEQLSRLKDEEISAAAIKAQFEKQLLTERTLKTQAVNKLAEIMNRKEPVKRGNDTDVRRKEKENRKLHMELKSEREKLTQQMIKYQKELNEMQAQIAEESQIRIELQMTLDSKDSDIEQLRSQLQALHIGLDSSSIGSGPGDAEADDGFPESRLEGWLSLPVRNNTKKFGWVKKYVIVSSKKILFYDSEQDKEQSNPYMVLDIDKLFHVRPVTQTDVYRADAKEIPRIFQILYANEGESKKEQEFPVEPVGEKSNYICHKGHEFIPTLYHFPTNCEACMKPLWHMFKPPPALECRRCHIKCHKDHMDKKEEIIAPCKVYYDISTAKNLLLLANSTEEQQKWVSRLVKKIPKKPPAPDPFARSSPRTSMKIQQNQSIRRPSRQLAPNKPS

| Molecule | IC50 |
| --- | --- |
| 2-(((2S,4r,6S)- 6-((2- ((S)-3- fluoro- pyrrolidin- 1- yl) pyrimidin-4- yl)amino) spiro[3.3] heptan-2- yl)oxy) nicotinamide [Example 69] | 1560 nM |
| NC(=O)c1cccnc1O[C@H]1CC2(C[C@H](Nc3nc4cc(F)c(Br)cc4s3)C2)C1 (stereo partly drawn) [Example 1, 2-(((2S,4s,6S)-6-((6-bromo-5-fluorobenzo[d]thiazol-2-yl)amino)spiro[3.3]heptan-2-yl)oxy)nicotinamide] | 547 nM |
| NC(=O)c1cccnc1O[C@H]1C[C@@]2(C[C@H](Nc3nc4ccc(F)cc4s3)C2)C1 (stereo partly drawn) [Example 2, 2-(((2S,4s,6S)-6-((6-fluorobenzo[d]thiazol-2-yl)amino)spiro[3.3]heptan-2-yl)oxy)nicotinamide] | 156 nM |
| NC(=O)c1cccnc1O[C@H]1C[C@@]2(C[C@H](Nc3nc4ccc(Cl)cc4s3)C2)C1 (stereo partly drawn) [Example 3, 2-(((2S,4s,6S)-6-((6-chlorobenzo[d]thiazol-2-yl)amino)spiro[3.3]heptan-2-yl)oxy)nicotinamide] | 268 nM |
| COc1ccc(-c2csc(N[C@H]3C[C@]4(C3)C[C@H](Oc3ncccc3C(N)=O)C4)n2)cc1 (stereo partly drawn) [Example 8, 2-(((2S,4s,6S)-6-((4-(4-methoxyphenyl)thiazol-2-yl)amino)spiro[3.3]heptan-2-yl)oxy)nicotinamide] | 115 nM |
| NC(=O)c1cccnc1O[C@H]1C[C@@]2(C[C@H](Nc3nc(-c4ccccc4F)cs3)C2)C1 (stereo partly drawn) [Example 11, 2-(((2S,4s,6S)-6-((4-(2-fluorophenyl)thiazol-2-yl)amino)spiro [3.3]heptan-2-yl)oxy)nicotinamide] | 1160 nM |
| NC(=O)c1cccnc1O[C@H]1C[C@@]2(C[C@H](Nc3nc(-c4ccc(F)cc4)cs3)C2)C1 (stereo partly drawn) [Example 12, 2-(((2S,4s,6S)-6-((4-(4-fluorophenyl)thiazol-2-yl)amino)spiro [3.3]heptan-2-yl)oxy)nicotinamide] | 846 nM |
| Cn1c(N[C@H]2C[C@]3(C2)C[C@H](Oc2ncccc2C(N)=O)C3)nc2c(F)cccc21 (stereo partly drawn) [Example 14, 2-(((2S,4s,6S)-6-((4-fluoro-1-methyl-1H-benzo[d]imidazol-2-yl)amino)spiro[3.3]heptan-2-yl)oxy)nicotinamide] | 320 nM |
| Cn1cc(-c2cccc3sc(N[C@H]4C[C@]5(C4)C[C@H](Oc4ncccc4C(N)=O)C5)nc23)cn1 (stereo partly drawn) [Example 15, 2-(((2S,4s,6S)-6-((4-(l-methyl-1H-pyrazol-4-yl)benzo[d]thiazol-2-yl)amino)spiro[3.3]heptan-2-yl)oxy)nicotinamide] | 597 nM |
| NC(=O)c1cccnc1O[C@H]1C[C@@]2(C[C@H](Nc3nnc(-c4ccc(F)c(F)c4)o3)C2)C1 (stereo partly drawn) [Example 18, 2-(((2S,4s,6S)-6-((5-(3,4-difluorophenyl)-1,3,4-oxadiazol-2-yl)amino)spiro[3.3]heptan-2-yl)oxy)nicotinainide] | 326 nM |
| NC(=O)c1cccnc1O[C@H]1C[C@@]2(C[C@H](Nc3nnc(-c4ccc(F)c(F)c4F)o3)C2)C1 (stereo partly drawn) [Example 19, 2-(((2S,4s,6S)-6-((5-(2,3,4-trifluorophenyl)-1,3,4-oxadiazol-2-yl)amino)spiro[3.3]heptan-2-yl)oxy)nicotinamide] | 287 nM |
| NC(=O)c1cccnc1O[C@H]1C[C@@]2(C[C@H](Nc3nnc(-c4ccc(F)cc4F)o3)C2)C1 (stereo partly drawn) [Example 20, 2-(((2S,4s,6S)-6-((5-(2,4-difluorophenyl)-1,3,4-oxadiazol-2-yl)amino)spiro[3.3]heptan-2-yl)oxy)nicotinamide] | 537 nM |
| NC(=O)c1cccnc1O[C@H]1C[C@@]2(C[C@H](Nc3cnc4ccc(F)cc4n3)C2)C1 (stereo partly drawn) [Example 22, 2-(((2S,4s,6S)-6-((7-fluoro-quinoxalin-2-yl)amino)spiro[3.3]heptan-2-yl)oxy) nicotinamide] | 148 nM |
| COc1ccc2c(N[C@H]3C[C@]4(C3)C[C@H](Oc3ncccc3C(N)=O)C4)ncnc2c1 (stereo partly drawn) [Example 25, 2-(((2S,4s,6S)-6-((7-methoxy-quinazolin-4-yl)amino)spiro[3.3]heptan-2-yl)oxy) nicotinamide] | 165 nM |
| NC(=O)c1cccnc1O[C@H]1C[C@@]2(C[C@H](Nc3ncnc4ccc(F)cc34)C2)C1 (stereo partly drawn) [Example 26, 2-(((2S,4s,6S)-6-((6-fluoro-quinazolin-4-yl)amino)spiro[3.3]heptan-2-yl)oxy) nicotinamide] | 128 nM |
| NC(=O)c1cccnc1O[C@H]1C[C@@]2(C[C@H](Nc3ncc4ccccc4n3)C2)C1 (stereo partly drawn) [Example 28, 2-(((2S,4s, 6S)-6-(quinazolin-2-ylamino)spiro [3.3]heptan-2-yl)oxy) nicotinamide] | 258 nM |
| NC(=O)c1cccnc1O[C@H]1C[C@@]2(C[C@H](Nc3ncc4cc(F)ccc4n3)C2)C1 (stereo partly drawn) [Example 29, 2-(((2S,4s,6S)-6-((6-fluoro-quinazolin-2-yl)amino)spiro [3.3]heptan-2-yl)oxy) nicotinamide] | 141 nM |
| NC(=O)c1cccnc1O[C@H]1C[C@@]2(C[C@H](Nc3ncc4ccc(F)cc4n3)C2)C1 (stereo partly drawn) [Example 30, 2-(((2S,4s,6S)-6-((7-fluoro-quinazolin-2-yl)amino)spiro[3.3]heptan-2-yl)oxy) nicotinamide] | 235 nM |
| NC(=O)c1cccnc1OC1CC2(CC(Nc3ncc4cc(Br)ccc4n3)C2)C1 [Example 35, 2-(((2S,4s,6S)-6-((6-bromo-quinazolin-2-yl)amino)spiro[3.3]heptan-2-yl)oxy) nicotinamide] | 192 nM |
| [H][C@]1(Oc2ncccc2C(N)=O)C[C@]2(C[C@@H](Nc3nccc(N4CCC(F)(F)CC4)n3)C2)C1 (stereo partly drawn) [Example 37, 2-(((2S,4s,6S)-6-((4-(4,4-difluoro-piperidin-1-yl)pyrimidin-2-yl)amino)spiro[3.3]heptan-2-yl)oxy) nicotinamide] | 202 nM |
| [H][C@]1(Oc2ncccc2C(N)=O)C[C@]2(C[C@@H](Nc3nccc(N4CCC(F)(F)C4)n3)C2)C1 (stereo partly drawn) [Example 38, 2-(((2S,4s,6S)-6-((4-(3,3-difluoro-pyrrolidin-1-yl)pyrimidin-2-yl)amino)spiro[3.3]heptan-2-yl)oxy) nicotinamide] | 388 nM |
| [H][C@]1(Oc2ncccc2C(N)=O)C[C@]2(C[C@@H](Nc3nccc(N4CC(F)(F)C4)n3)C2)C1 (stereo partly drawn) [Example 39, 2-(((2S,4s,6S)-6-((4-(3,3-difluoro-azetidin-1-yl)pyrimidin-2-yl)amino)spiro[3.3]heptan-2-yl)oxy) nicotinamide] | 983 nM |
| [H][C@]1(Oc2ncccc2C(N)=O)C[C@]2(C[C@@H](Nc3nccc(N4CCC(F)CC4)n3)C2)C1 (stereo partly drawn) [Example 40, 2-(((2S,4s,6S)-6-((4-(4-fluoro-piperidin-1-yl)pyrimidin-2-yl)amino)spiro [3.3]heptan-2-yl)oxy) nicotinamide] | 378 nM |

Now those with a lower IC50, led by results:

| IC50 | Molecule |
| --- | --- |
| 110 nM | NC(=O)c1cccnc1O[C@H]1C[C@@]2(C[C@H](Nc3nc4c(F)cccc4o3)C2)C1 (stereo partly drawn) [Example 6, 2-(((2S,4s,6S)-6-((4-fluorobenzo[d]oxazol-2-yl)amino)spiro[3.3]heptan-2-yl)oxy)nicotinamide] |
| 105 nM | N#Cc1ccc(-c2cnc(N[C@H]3CC4(C3)C[C@H](Oc3ncccc3C(N)=O)C4)nc2)cc1 (stereo partly drawn) [Example 34, 2-(((2S,4s,6S)-6-((5-(4-cyanophenyl)pyrimidin-2-yl)amino)spiro[3.3]heptan-2-yl)oxy)nicotinamide] |
| 103 nM | NC(=O)c1cccnc1O[C@H]1C[C@@]2(C[C@H](Nc3ncnc4cc(Cl)ccc34)C2)C1 (stereo partly drawn) [Example 24, 2-(((2S,4s,6S)-6-((7-chloro-quinazolin-4-yl)amino)spiro[3.3]heptan-2-yl)oxy) nicotinamide] |
| 96 nM | NC(=O)c1cccnc1O[C@H]1C[C@@]2(C[C@H](Nc3nc(-c4ccccc4)cs3)C2)C1 (stereo partly drawn) [Example 13, 2-(((2S,4s,6S)-6-((4-phenylthiazol-2-yl)amino)spiro[3.3]heptan-2-yl)oxy)nicotinamide] |
| 96 nM | NC(=O)c1cccnc1O[C@H]1C[C@@]2(C[C@H](Nc3nnc(-c4ccc(OC(F)(F)F)cc4)o3)C2)C1 (stereo partly drawn) [Example 16, 2-(((2S,4s,6S)-6-((5-(4-(trifluoromethoxy)phenyl)-1,3,4-oxadiazol-2-yl)amino)spiro[3.3]heptan-2-yl)oxy)nicotinamide] |
| 73 nM | NC(=O)c1cccnc1O[C@H]1C[C@@]2(C[C@H](Nc3cnc4cc(F)ccc4n3)C2)C1 (stereo partly drawn) [Example 21, 2-(((2S,4s,6S)-6-((6-fluoroquinoxalin-2-yl)amino)spiro[3.3]heptan-2-yl)oxy)nicotinamide] |
| 70 nM | NC(=O)c1cccnc1O[C@H]1C[C@@]2(C[C@H](Nc3nnc(-c4ccc(F)cc4)o3)C2)C1 (stereo partly drawn) [Example 17, 2-(((2S,4s,6S)-6-((5-(4-fluorophenyl)-1,3,4-oxadiazol-2-yl)amino)spiro[3.3]heptan-2-yl)oxy)nicotinamide] |
| 68 nM | COc1ccc2c(N[C@H]3C[C@]4(C3)C[C@H](Oc3ncccc3C(N)=O)C4)nc(OC)cc2c1 (stereo partly shown) [Example 32] |
| 62 nM | COc1ccc2ncnc(N[C@H]3C[C@]4(C3)C[C@H](Oc3ncccc3C(N)=O)C4)c2c1 (stereo partly shown) [Example 23] |
| 47 nM | Cc1ccc2c(N[C@H]3C[C@]4(C3)C[C@H](Oc3ncccc3C(N)=O)C4)nccc2c1 (stereo partly drawn) [Example 31, 2-(((2S,4s, 6S)-6-((6-methyl-isoquinolin-1-yl)amino)spiro [3.3]heptan-2-yl)oxy) nicotinamide] |
| 17 nM | COc1ccc2c(N[C@H]3C[C@]4(C3)C[C@H](Oc3ncccc3C(N)=O)C4)nccc2c1 (stereo partly drawn) [Example 33, 2-(((2S,4s,6S)-6-((6-methoxy-isoquinolin-1-yl)amino)spiro [3.3]heptan-2-yl)oxy) nicotinamide] |
